Laboratory results published in PMC6331850, “Evaluation of the Cytotoxicity of Structurally Correlated p-Menthane Derivatives” (Molecules, 2015).
≈ marks a conversion by molar mass, not a printed value.

Key:
[1] = system: OVCAR-8 (ovarian adenocarcinoma); assay: MTT cytotoxicity assay, OVCAR-8; type: cell-based; details: Homo sapiens, 25 μg/mL, 72 h incubation, mean of three independent experiments, read-out: Cell growth inhibition percentage, OVCAR-8 IG%
Method: (§1) The cytotoxicity of the 18 compounds was tested against OVCAR-8 (ovarian adenocarcinoma), HCT-116 (colon carcinoma), SF-295 (glioblastoma), and HL-60 (leukemia) human cancer cell lines, all obtained from the National Cancer Institute, Bethesda, MD, USA. Cells were grown in RPMI-1640 medium supplemented with 10% fetal bovine serum, 2 mM glutamine, 100 µg/mL streptomycin, and 100 U/mL penicillin, and incubated at 37 °C in a 5% CO2 atmosphere.
(§2) Tumor cell growth was determined by the ability of living cells to reduce the yellow dye 3-(4,5-dimethyl-2-thiazolyl)-2,5-diphenyl-2H-tetrazolium bromide (MTT; Sigma Chemical Co., St. Louis, MO, USA) to a purple formazan product, as described by Mossman. For all experiments, cells were seeded in 96-well plates (0.1 × 10^6 cells/mL in 100 μL medium). After 24 h, the 18 compounds (25 μg/mL), were dissolved in 0.7% dimethyl sulfoxide (DMSO), and were added to each well (three independent experiments, performed in triplicate). Then, the cells were incubated for 72 h at 37 °C in a 5% CO2 atmosphere. The experiment was performed as three independent experiments, using DMSO at 1%, and doxorubicin at […] as negative and positive controls, respectively. Doxorubicin, purity >98%; Sigma Chemical Co.).
(§3) At the end of incubation, the plates were centrifuged, and the medium was replaced by fresh medium (150 μL) containing 0.5 mg/mL MTT. Three hours later, the formazan product was dissolved in 150 μL DMSO, and absorbance was measured using a multiplate reader (DTX 880 Multimode Detector, Beckman Coulter Inc., Packard, ON, Canada). The treatment effects were expressed as the percentage of control absorbance of reduced dye at 595 nm. All absorbance values were converted into a cell growth inhibition percentage (GI%) by the following formula: [GI% = 100 − [(T/C) × 100%] (1) where C is the absorbance for the negative control, and T is the absorbance in the presence of the tested compound. […]

[2] = system: OVCAR-8, HCT-116, and SF-295 human tumor cell lines; assay: MTT cytotoxicity assay, range over the three tumor cell lines; type: cell-based; details: for inhibition at 25 µg/mL: read-out: GI, range over the three cell lines
Method: as §1, §2
At the end of incubation, the plates were centrifuged, and the medium was replaced by fresh medium (150 μL) containing 0.5 mg/mL MTT. Three hours later, the formazan product was dissolved in 150 μL DMSO, and absorbance was measured using a multiplate reader (DTX 880 Multimode Detector, Beckman Coulter Inc., Packard, ON, Canada). The treatment effects were expressed as the percentage of control absorbance of reduced dye at 595 nm. All absorbance values were converted into a cell growth inhibition percentage (GI%) by the following formula: [GI% = 100 − [(T/C) × 100%] (1) where C is the absorbance for the negative control, and T is the absorbance in the presence of the tested compound.
The compounds that caused greater degree of cell growth inhibition and which have not been described in the literature for cytotoxic activity against tumor cell lines were evaluated for their median inhibitory concentration able to induce 50% of maximal effect (IC50). […] In addition, the IC50 was determined against HL-60 only for the most cytotoxic compound 16.

SF-295 (glioblastoma) = assay: MTT cytotoxicity assay, SF-295; type: cell-based; details: Homo sapiens, 25 μg/mL, 72 h incubation, mean of three independent experiments, read-out: Cell growth inhibition percentage, SF-295 IG%
Method: as §1, §2, §3

[3] = system: HCT-116 (colon carcinoma); assay: MTT cytotoxicity assay, HCT-116; type: cell-based; details: Homo sapiens, 25 μg/mL, 72 h incubation, mean of three independent experiments, read-out: Cell growth inhibition percentage, HCT-116 IG%
Method: as §1, §2, §3

HL-60 cells [4] = assay: Morphological analysis with hematoxylin-eosin staining; type: cell-based, human; details: 0.32, 0.64, 1.28 µg/mL; 24 h incubation
Method: For morphological cell analysis, we used hematoxylin-eosin and examined using light microscopy. HL-60 cells were seeded (0.3 × 10^6 cells/mL) in the absence or presence of different concentrations of compound 16 (0.32, 0.64 and 1.28 µg/mL). After an incubation period of 24 h, 50 µL of cell suspension were transferred to cytospin slides, fixed with metanol for 60 s, and stained with hematoxylin-eosin [43].

HL-60 (leukemia) = assay: MTT cytotoxicity assay, HL-60; type: cell-based; details: Homo sapiens, 72 h incubation, read-out: IC50 (95% confidence interval), HL-60
Method: as §1
Tumor cell growth was determined by the ability of living cells to reduce the yellow dye 3-(4,5-dimethyl-2-thiazolyl)-2,5-diphenyl-2H-tetrazolium bromide (MTT; Sigma Chemical Co., St. Louis, MO, USA) to a purple formazan product, as described by Mossman. […]
as §3

mouse erythrocytes = assay: Hemolytic assay; type: cell-based; details: up to highest tested concentration 500 μg/mL; data not shown
Method: The test was performed in 96-well plates using a 2% mouse erythrocyte suspension in 0.85% NaCl containing 10 mm CaCl2, following the method as described by Jimenez and collaborators. Various concentrations of compound 16 (0–500 µg/mL) were added to the suspension of red blood cells obtained from mice according to methodology adapted from Kang and collaborators, Pita and collaborators, and Bezerra and collaborators. The tubes with the compound 16 erythrocyte mixtures were incubated on a mixer for 60 min and then centrifuged at 3000 rpm for 5 min. […] After incubation at room temperature for 30 min and centrifugation, the supernatant was removed and the liberated hemoglobin was measured spectrophotometrically as the absorbance at 540 nm.

HL-60 cells [5] = assay: Morphological analysis by fluorescence microscopy (acridine orange/ethidium bromide); type: cell-based, human; details: 24 h
Method: HL-60 cells were pelleted and re-suspended in 20 µL of PBS. Then, 1 µL of aqueous acridine orange/ethidium bromide solution (AO/EB, 100 µg/mL) was added, and the cells were observed under a fluorescence microscope. Three hundred cells were counted per sample and classified as viable, apoptotic or necrotic.

HL-60 cells [6] = assay: Cell viability, trypan blue dye exclusion test; type: cell-based, human; details: 0.32, 0.64, 1.28 µg/mL; 24 h incubation
Method: The cell viability was determined by the trypan blue dye exclusion test. HL-60 cells were seeded (0.3 × 10^6 cells/mL) in absence or presence of different concentrations of compound 16 (0.32, 0.64, and 1.28 µg/mL). After the incubation period of 24 h, 90 µL were removed from the cell suspension and added to 10 µL of trypan blue. Viable and non-viable cells were differentiated and counted in a Neubauer chamber.

[7] = Homo sapiens, 72 h, 25 µg/mL, MTT, 72 h, HCT-116, OVCAR-8, SF-295

| Compound | inhibition at 25 µg/mL [1] | inhibition at 25 µg/mL [2, 7] | inhibition at 25 µg/mL (SF-295 (glioblastoma)) | inhibition at 25 µg/mL [3] | other results |
| --- | --- | --- | --- | --- | --- |
| C=C(C)[C@@H]1CCC2(C)OC2C1 (single isomer, unassigned; (+)) [Compound 12, (+)-Limonene 1,2-epoxide] | 93.1% | < 50% | 58.5% | 73.1% | fold more cytotoxic than 5 (GI ratio) ([2]; compared with (−)-carvone epoxide (5), 25 µg/mL): 2.5- to 11 fold |
| CC1=CC[C@@H](C(C)(C)O)CC1O (single isomer, unassigned; (-)) [Compound 13, (−)-Sobrerol] | 41.4% |  | 34.2% | 9.78% |  |
| CC1([C@@H]2CC=C(C=O)CC2)CO1 (single isomer, unassigned; (-)) [Compound 16, (−)-Perillaldehyde 8,9-epoxide] | 96.3% | 96.3 to 99.9% | 99.9% | 98.6% | cell morphology, hematoxylin-eosin (HL-60 cells [4]): morphology consistent with apoptosis; IC50 (HL-60 (leukemia)): 0.64 µg/mL (≈ 3.85 µM); IC50 ([2]; Homo sapiens, MTT, 72 h, HCT-116, OVCAR-8, SF-295): 1.03 to 1.75 µg/mL (≈ 6.2 to 10.5 µM); hemolysis (lysis of mouse erythrocytes) (mouse erythrocytes): not hemolytic; cell death process, three concentrations tested (HL-60 cells [5]; 0.32, 0.64, 1.28 µg/mL, Figures 3 and 4): cell death by apoptosis; cell morphology, acridine orange/ethidium bromide (HL-60 cells [5]; 0.32, 0.64, 1.28 µg/mL, concentration-dependent, p < 0.05): morphology consistent with apoptosis and necrosis; cell death process at the higher doses (HL-60 cells [5]; doses of 0.64 and 1.28): necrotic cell death; effect on number of viable / non-viable cells (HL-60 cells [6]): reduction in the number of viable cells |
| C=C(C)[C@@H]1CC=C(C)C(=O)C1 [Compound 1, (−)-Carvone] | 2.28% |  | 12.3% | 11.9% |  |
| C=C(C)[C@H]1CC=C(C)C(=O)C1 [Compound 2, (+)-Carvone] | 48.1% | < 50% | 34.4% | 46.1% |  |
| CC1=CC[C@@H](C(C)(C)O)CC1=O [Compound 3, (−)-8-Hydroxycarvotanacetone] | 94% | 61.6 to 94% | 61.6% | 75.2% | GI, range over the three cell lines ([2]; 25 µg/mL, MTT, 72 h, HCT-116, OVCAR-8, SF-295): 61.59% to 94.01% |
| CC1=CC[C@H](C(C)(C)O)CC1=O [Compound 4, (+)-8-Hydroxycarvotanacetone] | 3.12% |  | 16.4% | 4.76% |  |
| C=C(C)[C@@H]1CC(=O)[C@@]2(C)O[C@H]2C1 [Compound 5, (−)-Carvone epoxide] | 8.21% |  | 10.9% | 29.2% |  |
| C=C(C)[C@@H]1C[C@H](O)[C@]2(C)O[C@@H]2C1 [Compound 6, (+)-Carveol epoxide] | 4.58% |  | 35.4% | 12.4% |  |
| C=C(C)[C@@H]1CC=C(C)[C@H](O)C1 [Compound 7, (−)-cis-carveol] | 3.61% |  | 21.2% | 9% |  |
| CC(=O)OC(C)(C)[C@@H]1CC=C(C)C(=O)C1 [Compound 8, (−)-8-Acetoxycarvotanacetone] | 1.62% |  | 30.5% | 10.4% |  |
| CC(C)=C1CC[C@@H](C)CC1=O [Compound 9, (+)-Pulegone] | 14.4% |  | 27.4% | 10.2% |  |
| C[C@@H]1CCC2(OC2(C)C)C(=O)C1 (stereo partly drawn) [Compound 10, (R)-pulegone oxide] | 17.6% |  | 16% | 43.2% |  |
| C=C(C)[C@@H]1CC[C@@H](C)CC1=O [Compound 11, (−)-trans-isopulegone] | 5.98% |  | 7.56% | 19% |  |
| C=C(C)[C@@H]1CC=C(CO)CC1 [Compound 14, (S)-(−)-perillyl alcohol] | 91.7% | 90.9 to 95.8% | 90.9% | 95.8% |  |
| C=C(C)[C@@H]1CC=C(C=O)CC1 [Compound 15, (−)-Perillaldehyde] | 70.2% | 59.3 to 83% | 59.3% | 83% |  |
| C=C(C)[C@@H]1CC=C(COC(C)=O)CC1 [Compound 17, (−)-Perillyl acetate] | 3.06% |  | 16.4% | 14.2% |  |
| C=C(C)[C@@H]1CC=C(COC(=O)c2ccccc2)CC1 [Compound 18, (S)-perillyl benzoate] | 2.86% |  | 4.53% | 5.02% |  |
| COc1cccc2c1C(=O)c1c(O)c3c(c(O)c1C2=O)C[C@@](O)(C(=O)CO)C[C@@H]3O[C@H]1C[C@H](N)[C@H](O)[C@H](C)O1 [Doxorubicin, reference compound] | 100% |  | 99.6% | 99.2% |  |
